Measurements reported in the supplement of paper PMC10307832.

Legend:
Experiment in all cases: relative viability (nuclei count vs DMSO), 5 days (fraction); higher = more cells survive
[1] = compound: CN(C/C=C/C1=CC=C(C=C1)Cl)CC2=CC=CC=C2N(CCO)S(=O)(=O)C3=CC=C(C=C3)OC [KN-93] + Nc1ncn([C@H]2C[C@H](O)[C@@H](CO)O2)c(=O)n1 [Decitabine] (partner 2 µM)
Method in brief: (§1)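 Values are medians from duplicate plates. Each reflects relative viability, defined as the nuclei count of treated wells over that of vehicle wells. Lung cancer cell lines in 1536-well plates were pin-tool dosed one day after seeding with one drug alone or with a fixed anchor-drug dose plus five library-drug doses (not always all listed) in √10 steps, then fixed, stained and imaged at 4× after 5 days.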

[2] = compound: CN(C/C=C/C1=CC=C(C=C1)Cl)CC2=CC=CC=C2N(CCO)S(=O)(=O)C3=CC=C(C=C3)OC [KN-93] + CS(=O)(=O)N1CCN(Cc2cc3nc(-c4cccc5[nH]ncc45)nc(N4CCOCC4)c3s2)CC1 [Pictilisib] (partner 1 µM)
Method in brief: as §1

[3] = compound: CN(C/C=C/C1=CC=C(C=C1)Cl)CC2=CC=CC=C2N(CCO)S(=O)(=O)C3=CC=C(C=C3)OC [KN-93] + CC1(C)CCC(c2ccc(Cl)cc2)=C(CN2CCN(c3ccc(C(=O)NS(=O)(=O)c4ccc(N[C@H](CCN5CCOCC5)CSc5ccccc5)c(S(=O)(=O)C(F)(F)F)c4)cc3)CC2)C1 [Navitoclax] (partner 0.5 µM)
Method in brief: as §1

[4] = compound: CN(C/C=C/C1=CC=C(C=C1)Cl)CC2=CC=CC=C2N(CCO)S(=O)(=O)C3=CC=C(C=C3)OC [KN-93] + COc1cccc2cc(-c3nc([C@H]4CC[C@H](C(=O)O)CC4)n4ncnc(N)c34)[nH]c12 [OSI-027] (partner 0.5 µM)
Method in brief: as §1

[5] = compound: CN(C/C=C/C1=CC=C(C=C1)Cl)CC2=CC=CC=C2N(CCO)S(=O)(=O)C3=CC=C(C=C3)OC [KN-93]
Method in brief: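 Viability was defined as treated-well nuclei divided by vehicle-well nuclei, with the median taken over replicate plates. Cells from lung cancer lines sat overnight at 37 °C in 1536-well plates, received five √10-spaced library-drug doses by pinning on vehicle-anchored plates, and grew 5 days without medium change before one-step fixation, permeabilisation and Hoechst staining, 4× imaging and MetaXpress nuclear counts. Only plates with control CV under 25% and at least one doubling were kept.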

| Cell Line | relative viability ([1]; first compound 0.08 µM) | relative viability ([1]; first compound 0.253 µM) | relative viability ([1]; first compound 2.53 µM) | relative viability ([1]; first compound 8 µM) | relative viability ([2]; first compound 0.08 µM) | relative viability ([2]; first compound 0.253 µM) | relative viability ([2]; first compound 2.53 µM) | relative viability ([2]; first compound 8 µM) | relative viability ([3]; first compound 0.08 µM) | relative viability ([3]; first compound 0.253 µM) | relative viability ([3]; first compound 2.53 µM) | relative viability ([3]; first compound 8 µM) | relative viability ([4]; first compound 0.08 µM) | relative viability ([4]; first compound 0.253 µM) | relative viability ([4]; first compound 2.53 µM) | relative viability ([4]; first compound 8 µM) | relative viability ([5]; 0.08 µM) | relative viability ([5]; 0.253 µM) | relative viability ([5]; 2.53 µM) | relative viability ([5]; 8 µM) |
| --- | --- | --- | --- | --- | --- | --- | --- | --- | --- | --- | --- | --- | --- | --- | --- | --- | --- | --- | --- | --- |
| HCC-78 | 0.724 | 0.676 | 0.709 | 0.747 | 0.251 | 0.185 | 0.193 | 0.182 | 0.699 | 0.833 | 0.778 | 0.375 | 0.388 | 0.315 | 0.387 | 0.339 | 0.941 | 0.828 | 1.04 | 0.744 |
| HCC-366 | 0.333 | 0.333 | 0.307 | 0.299 | 0.117 | 0.0961 | 0.134 | 0.107 | – | 1.35 | 1.1 | 0.907 | 0.758 | 0.696 | 0.894 | 0.235 | 0.835 | 1.1 | 1.11 | 0.863 |
| HCC-827 | 0.356 | 0.335 | 0.332 | 0.304 | 1.08 | 0.982 | 1.03 | 0.986 | 1.04 | 0.986 | 0.98 | 0.872 | 0.729 | 0.777 | 0.991 | 0.565 | 1.08 | 1.05 | 1.05 | 0.851 |
| HOP-62 | 0.225 | 0.27 | 0.241 | 0.239 | 0.626 | 0.741 | 0.968 | 0.428 | 1.01 | 0.897 | 1.38 | 0.904 | 0.855 | 1.08 | 1.07 | 0.537 | 1.06 | 1.07 | 1.17 | 0.733 |
| IA-LM | – | – | – | – | 0.27 | 0.309 | 0.767 | 0.349 | 0.975 | 0.826 | 1.23 | 0.439 | – | – | – | – | 0.896 | 0.948 | 1.47 | 0.875 |
| LC-2-ad | 0.775 | 0.772 | 0.911 | 0.702 | 0.313 | 0.373 | 0.368 | 0.187 | 0.425 | 0.414 | 0.364 | 0.129 | 0.874 | 0.964 | 0.842 | 0.707 | 0.965 | 1.16 | 0.995 | 0.725 |
| LCLC-97TM1 | 0.288 | 0.208 | 0.279 | 0.211 | 0.176 | – | 0.182 | 0.156 | 0.287 | – | 0.527 | 0.238 | 0.461 | 0.634 | 0.561 | 0.353 | 0.975 | 1.29 | 1.09 | 0.601 |
| LCLC-103H | 0.657 | 0.69 | 0.673 | 0.518 | 0.617 | 0.581 | 0.614 | 0.537 | – | – | – | – | 0.446 | 0.455 | 0.356 | 0.309 | 0.869 | 1.14 | 0.945 | 0.812 |
| LK-2 | 0.276 | 0.293 | 0.315 | 0.278 | 0.683 | 0.679 | 0.725 | 0.314 | 0.743 | 0.677 | 1.12 | 0.567 | 0.207 | 0.182 | 0.189 | 0.165 | 1.07 | 1.17 | 1.37 | 0.846 |
| LOU-NH91 | 0.833 | 0.769 | 0.795 | 0.786 | 0.513 | 0.422 | 0.568 | 0.489 | 0.621 | 0.63 | 0.709 | 0.545 | 0.663 | 0.565 | 0.827 | 0.65 | 0.988 | 0.834 | 0.963 | 0.842 |
| LU99A | 0.777 | 0.893 | 0.859 | 0.711 | 0.302 | 0.366 | 0.32 | 0.308 | 0.86 | 0.787 | 0.763 | 0.609 | 0.327 | 0.273 | 0.27 | 0.275 | 0.953 | 0.951 | 1.01 | 0.74 |
| NCI-H358 | 0.212 | 0.207 | 0.198 | 0.184 | 0.39 | 0.381 | 0.327 | 0.28 | – | – | – | – | 0.74 | 0.653 | 0.831 | 0.421 | 0.834 | 1.04 | 0.916 | 0.539 |
| NCI-H522 | 0.699 | 0.625 | 0.7 | 0.707 | – | – | – | – | – | – | – | – | 0.824 | 0.746 | 0.801 | 0.558 | 1.04 | 0.986 | 1.04 | 0.783 |
| NCI-H650 | 0.325 | 0.272 | 0.302 | 0.311 | 0.906 | 0.892 | 1.06 | 0.605 | – | – | – | – | 0.502 | 0.536 | 0.576 | 0.443 | 1.01 | 1.1 | 1.11 | 0.598 |
| NCI-H661 | 0.539 | 0.527 | 0.543 | 0.378 | 0.396 | 0.417 | 0.336 | 0.253 | – | – | – | – | 0.693 | 0.741 | 0.606 | 0.273 | 0.938 | 1.02 | 0.968 | 0.583 |
| NCI-H1703 | – | – | – | – | 0.257 | 0.307 | 0.211 | 0.247 | 0.936 | 1.11 | 1.04 | 0.179 | – | – | – | – | 0.871 | 0.89 | 0.841 | 0.459 |
| NCI-H2228 | – | – | – | – | 0.251 | 0.324 | 0.384 | 0.329 | 1.31 | 0.788 | 0.914 | 0.674 | 0.55 | 0.443 | 0.567 | 0.237 | 0.904 | 1.27 | 1.41 | 0.711 |
| SW 900 | 0.443 | 0.427 | 0.452 | 0.517 | – | – | – | – | – | – | – | – | 0.571 | 0.438 | 0.624 | 0.411 | 0.9 | 0.704 | 1 | 0.508 |
